Results published in article PMC6017357, “In Vitro Inhibitory Effects of Synthetic Cannabinoid EAM-2201 on Cytochrome P450 and UDP-Glucuronosyltransferase Enzyme Activities in Human Liver Microsomes” (Molecules : A Journal of Synthetic Chemistry and Natural …, 2018).

Target: CYP2C9 (Homo sapiens, UniProt P11712)
Test: CYP2C9-catalyzed diclofenac 4′-hydroxylation in human liver microsomes (IC50 and time-dependent inhibition)
Assay type: in vitro ADME
Parameters: from tissue; host or cells: ultrapooled human liver microsomes
Procedure: The inhibitory potential (IC50 values) of EAM-2201 on CYP1A2, CYP2A6, CYP2C8, CYP2C9, CYP2C19, CYP2D6 and CYP3A4 were evaluated using ultrapooled human liver microsomes and a cocktail of seven CYP substrates followed by LC-tandem mass spectrometry (LC-MS/MS) as previously described. Each incubation mixture was prepared in a total volume of 100 µL as follows: pooled human liver microsomes (5.2 pmol CYP), 1.0 mM NADPH, 10 mM magnesium chloride, 50 mM potassium phosphate buffer (pH 7.4), various concentrations of EAM-2201 in DMSO (final concentrations of 0.1–50 µM, 0.5% DMSO) and a cocktail of seven CYP probe substrates in 50% acetonitrile (0.5% acetonitrile), including 50 µM phenacetin, 2.5 µM coumarin, 2.0 µM amodiaquine, 10 µM diclofenac, 100 µM [S]-mephenytoin, 5 µM bufuralol and 2.5 µM midazolam in 50% acetonitrile. After a 3-min preincubation at 37 °C, the reactions were initiated by adding NADPH and incubation proceeded for 15 min at 37 °C in a shaking water bath. The reactions were stopped by adding 100 µL of ice-cold methanol containing internal standards (^13C2,^15N-acetaminophen for acetaminophen and N-desethylamodiaquine; d9-1′-hydroxybufuralol for 4′-hydroxydiclofenac, 7-hydroxycoumarin, 4′-hydroxymephenytoin, 1′-hydroxybufuralol and 1′-hydroxy-midazolam). The incubation mixtures were centrifuged at 13,000× g for 4 min at 4 °C and 50 µL of each supernatant was diluted in 50 µL of water. Aliquots (5 µL) of the diluted supernatants were analyzed using LC-MS/MS. All assays were performed in triplicate and the mean values were used in calculations. […] Each reaction was initiated by adding the seven-CYP probe substrate cocktail described above.
The time-dependent inhibitory effects of EAM-2201 on CYP2C8, CYP2C9, CYP2C19 and CYP3A4 activities in ultrapooled human liver microsomes were evaluated using time- and concentration-dependent inhibition assays. Ultrapooled human liver microsomes (26.0 pmol CYP) were pre-incubated with various concentrations of EAM-2201 in DMSO (0.5% DMSO) in 50 mM potassium phosphate buffer (pH 7.4) in the presence of NADPH for predetermined time periods: 5–15 min for CYP2C8 activity, 5–20 min for CYP2C9 activity and 15–40 min for CYP2C19 and CYP3A4 activities. […] Aliquots (5 µL) of the diluted supernatants were analyzed using LC-MS/MS.
The metabolites formed from CYP substrates were simultaneously quantified using our previously described LC-MS/MS method. […]

Sequence of CYP2C9 (P11712 whole entry): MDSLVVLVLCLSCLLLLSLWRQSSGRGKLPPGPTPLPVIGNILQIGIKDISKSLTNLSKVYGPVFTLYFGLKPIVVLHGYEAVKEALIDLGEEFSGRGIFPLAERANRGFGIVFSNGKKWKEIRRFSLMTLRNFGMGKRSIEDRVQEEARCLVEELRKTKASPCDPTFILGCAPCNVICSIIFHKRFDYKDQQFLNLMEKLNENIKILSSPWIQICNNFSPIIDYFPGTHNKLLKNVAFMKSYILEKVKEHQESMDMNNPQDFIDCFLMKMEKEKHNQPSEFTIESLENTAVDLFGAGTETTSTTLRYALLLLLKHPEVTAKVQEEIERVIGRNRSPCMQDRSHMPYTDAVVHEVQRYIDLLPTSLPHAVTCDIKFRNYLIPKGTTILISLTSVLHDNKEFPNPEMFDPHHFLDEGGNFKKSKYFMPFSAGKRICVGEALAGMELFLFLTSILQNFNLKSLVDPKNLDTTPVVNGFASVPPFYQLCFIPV

With `CCc1ccc(C(=O)c2cn(CCCCCF)c3ccccc23)c2ccccc12` [EAM-2201, (4-ethyl-1-naphthalenyl)[1-(5-fluoropentyl)-1H-indol-3-yl]-methanone] the IC50 was 6.7 µM, the “inactivation efficiency (kinact/Ki), CYP2C9” value (human liver microsomes) was 15.4 mL/µmol/min and the kinact (human, ultrapooled human liver microsomes, pH 7.4, probe diclofenac (10 µM), 4′-hydroxylation, read-out: kinact, time-dependent inhibition of CYP2C9 diclofenac 4′-hydroxylase (converted)) was 0.00077 s⁻¹. For the same compound, the “inhibition of CYP2C9-catalyzed diclofenac 4′-hydroxylation” value (up to 50 µM, without 30-min preincubation, human liver microsomes) was “negligibly inhibited”.
